Test system: 361931-004-R-J1-PDC multicell spheroid viability
Test: Anticancer human tumor 361931-004-R-J1-PDC patient-derived colon adenocarcinoma cell line growth inhibition [PI3K]
Conditions: for IC50: curve of first compound; for viability, T/C: stronger effect = lower value
Method in brief: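 High-throughput combination screen: PI3K inhibitors crossed with targeted small molecules on complex spheroids of tumor cells, HUVEC and MSCs at 37 degrees C, 5% CO2. Top concentration was at or near clinical Cmax (otherwise 10 microM), with half-log decrements.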

[1] = second compound 0.0316 µM, first compound 0.000316 µM
[2] = second compound 0.0316 µM, first compound 0.001 µM
[3] = second compound 0.0316 µM, first compound 0.00316 µM
[4] = second compound 0.0316 µM, first compound 0.01 µM
[5] = second compound 0.0316 µM, first compound 0.0316 µM
[6] = second compound 0.0316 µM, first compound 0.1 µM
[7] = second compound 0.1 µM, first compound 0.000316 µM
[8] = second compound 0.1 µM, first compound 0.001 µM
[9] = second compound 0.1 µM, first compound 0.00316 µM
[10] = second compound 0.1 µM, first compound 0.01 µM
[11] = second compound 0.1 µM, first compound 0.0316 µM
[12] = second compound 0.1 µM, first compound 0.1 µM
[13] = second compound 0.316 µM, first compound 0.000316 µM
[14] = second compound 0.316 µM, first compound 0.001 µM
[15] = second compound 0.316 µM, first compound 0.00316 µM
[16] = second compound 0.316 µM, first compound 0.01 µM
[17] = second compound 0.316 µM, first compound 0.0316 µM
[18] = second compound 0.316 µM, first compound 0.1 µM
[19] = second compound 1 µM, first compound 0.000316 µM
[20] = second compound 1 µM, first compound 0.001 µM
[21] = second compound 1 µM, first compound 0.00316 µM
[22] = second compound 1 µM, first compound 0.01 µM
[23] = second compound 1 µM, first compound 0.0316 µM
[24] = second compound 1 µM, first compound 0.1 µM
[25] = second compound 0.00316 µM, first compound 0.0316 µM
[26] = second compound 0.00316 µM, first compound 0.1 µM
[27] = second compound 0.01 µM, first compound 0.0316 µM
[28] = second compound 0.01 µM, first compound 0.1 µM
[29] = second compound 0.00316 µM, first compound 0.316 µM
[30] = second compound 0.00316 µM, first compound 1 µM
[31] = second compound 0.00316 µM, first compound 3.16 µM
[32] = second compound 0.00316 µM, first compound 10 µM
[33] = second compound 0.01 µM, first compound 0.316 µM
[34] = second compound 0.01 µM, first compound 1 µM
[35] = second compound 0.01 µM, first compound 3.16 µM
[36] = second compound 0.01 µM, first compound 10 µM
[37] = second compound 0.0316 µM, first compound 0.316 µM
[38] = second compound 0.0316 µM, first compound 1 µM
[39] = second compound 0.0316 µM, first compound 3.16 µM
[40] = second compound 0.0316 µM, first compound 10 µM
[41] = second compound 0.1 µM, first compound 0.316 µM
[42] = second compound 0.1 µM, first compound 1 µM
[43] = second compound 0.1 µM, first compound 3.16 µM
[44] = second compound 0.1 µM, first compound 10 µM
[45] = second compound 0.316 µM, first compound 0.316 µM
[46] = second compound 0.316 µM, first compound 1 µM
[47] = second compound 0.316 µM, first compound 3.16 µM
[48] = second compound 0.316 µM, first compound 10 µM
[49] = second compound 1 µM, first compound 0.316 µM
[50] = second compound 1 µM, first compound 1 µM
[51] = second compound 1 µM, first compound 3.16 µM
[52] = second compound 1 µM, first compound 10 µM
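Note: spheroids exposed to agents for seven days before readout.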

Structure (SMILES): CC(C)n1nc(-c2ccc3oc(N)nc3c2)c2c(N)ncnc21 + Cc1nc(NC(=O)N2CCCC2C(N)=O)sc1-c1ccnc(C(C)(C)C(F)(F)F)c1
- IC50 (second compound 0.0316 µM): > 100 nM
- IC50 (second compound 0.1 µM): > 100 nM
- IC50 (second compound 0.316 µM): 99.1 nM
- IC50 (second compound 1 µM): 70.4 nM
- IC50 (second compound 3.16 µM): 54.1 nM
- IC50 (second compound 10 µM): 21.6 nM
- viability, T/C [1]: 102%
- viability, T/C [2]: 101%
- viability, T/C [3]: 97.8%
- viability, T/C [4]: 97.8%
- viability, T/C [5]: 101%
- viability, T/C [6]: 64.5%
- viability, T/C [7]: 108%
- viability, T/C [8]: 111%
- viability, T/C [9]: 99.3%
- viability, T/C [10]: 101%
- viability, T/C [11]: 90.2%
- viability, T/C [12]: 58.1%
- viability, T/C [13]: 106%
- viability, T/C [14]: 93.8%
- viability, T/C [15]: 96.8%
- viability, T/C [16]: 93.7%
- viability, T/C [17]: 88.9%
- viability, T/C [18]: 49%
- viability, T/C [19]: 94.2%
- viability, T/C [20]: 89%
- viability, T/C [21]: 82.3%
- viability, T/C [22]: 91.3%
- viability, T/C [23]: 72.9%
- viability, T/C [24]: 39.9%
- viability, T/C (second compound 3.16 µM, first compound 0.000316 µM): 83.9%
- viability, T/C (second compound 3.16 µM, first compound 0.001 µM): 85.2%
- viability, T/C (second compound 3.16 µM, first compound 0.00316 µM): 83.8%
- viability, T/C (second compound 3.16 µM, first compound 0.01 µM): 68.9%
- viability, T/C (second compound 3.16 µM, first compound 0.0316 µM): 72.3%
- viability, T/C (second compound 3.16 µM, first compound 0.1 µM): 29.6%
- viability, T/C (second compound 10 µM, first compound 0.000316 µM): 65%
- viability, T/C (second compound 10 µM, first compound 0.001 µM): 62.4%
- viability, T/C (second compound 10 µM, first compound 0.00316 µM): 64%
- viability, T/C (second compound 10 µM, first compound 0.01 µM): 60%
- viability, T/C (second compound 10 µM, first compound 0.0316 µM): 45%
- viability, T/C (second compound 10 µM, first compound 0.1 µM): 19.2%

Structure (SMILES): CC(C)n1nc(-c2ccc3oc(N)nc3c2)c2c(N)ncnc21 + CC(Nc1ccc2c(c1)OCCn1cc(N3C(=O)OCC3C(F)F)nc1-2)C(N)=O
- IC50 (second compound 0.00316 µM): > 100 nM
- IC50 (second compound 0.01 µM): > 100 nM
- IC50 (second compound 0.0316 µM): > 100 nM
- IC50 (second compound 0.1 µM): 95.8 nM
- IC50 (second compound 0.316 µM): > 100 nM
- IC50 (second compound 1 µM): 54.4 nM
- viability, T/C (second compound 0.00316 µM, first compound 0.000316 µM): 102%
- viability, T/C (second compound 0.00316 µM, first compound 0.001 µM): 106%
- viability, T/C (second compound 0.00316 µM, first compound 0.00316 µM): 98.2%
- viability, T/C (second compound 0.00316 µM, first compound 0.01 µM): 95.6%
- viability, T/C [25]: 101%
- viability, T/C [26]: 59.9%
- viability, T/C (second compound 0.01 µM, first compound 0.000316 µM): 109%
- viability, T/C (second compound 0.01 µM, first compound 0.001 µM): 104%
- viability, T/C (second compound 0.01 µM, first compound 0.00316 µM): 97.5%
- viability, T/C (second compound 0.01 µM, first compound 0.01 µM): 91.6%
- viability, T/C [27]: 95.8%
- viability, T/C [28]: 57.3%
- viability, T/C [1]: 102%
- viability, T/C [2]: 98.7%
- viability, T/C [3]: 91.9%
- viability, T/C [4]: 91.2%
- viability, T/C [5]: 94.1%
- viability, T/C [6]: 50.2%
- viability, T/C [7]: 102%
- viability, T/C [8]: 116%
- viability, T/C [9]: 100%
- viability, T/C [10]: 91.2%
- viability, T/C [11]: 87.2%
- viability, T/C [12]: 47.6%
- viability, T/C [13]: 84.9%
- viability, T/C [14]: 96.3%
- viability, T/C [15]: 106%
- viability, T/C [16]: 81.7%
- viability, T/C [17]: 75.6%
- viability, T/C [18]: 51.9%
- viability, T/C [19]: 89%
- viability, T/C [20]: 80.6%
- viability, T/C [21]: 82.4%
- viability, T/C [22]: 68.8%
- viability, T/C [23]: 69.9%
- viability, T/C [24]: 32.6%

Structure (SMILES): CC1(C)CCC(Nc2ncc(C(F)(F)F)c(-c3c[nH]c4c(P(C)(C)=O)c(C#N)ccc34)n2)CN1 (stereo not drawn) + COc1c(OCCCN2CCOCC2)ccc2c3n(c(=NC(=O)c4cnc(N)nc4)nc12)CCN3
- IC50 (second compound 0.00316 µM): 5540 nM
- IC50 (second compound 0.01 µM): 4870 nM
- IC50 (second compound 0.0316 µM): 4490 nM
- IC50 (second compound 0.1 µM): 3680 nM
- IC50 (second compound 0.316 µM): < 31.6 nM
- IC50 (second compound 1 µM): < 31.6 nM
- viability, T/C [25]: 85.5%
- viability, T/C [26]: 94.7%
- viability, T/C [29]: 83.8%
- viability, T/C [30]: 92.7%
- viability, T/C [31]: 85.1%
- viability, T/C [32]: 12.9%
- viability, T/C [27]: 92.4%
- viability, T/C [28]: 92.7%
- viability, T/C [33]: 82%
- viability, T/C [34]: 83.1%
- viability, T/C [35]: 73.6%
- viability, T/C [36]: 12.7%
- viability, T/C [5]: 80.7%
- viability, T/C [6]: 72.5%
- viability, T/C [37]: 67.7%
- viability, T/C [38]: 66.3%
- viability, T/C [39]: 67.1%
- viability, T/C [40]: 12%
- viability, T/C [11]: 63.4%
- viability, T/C [12]: 56.6%
- viability, T/C [41]: 59.3%
- viability, T/C [42]: 51.6%
- viability, T/C [43]: 56.6%
- viability, T/C [44]: 8.34%
- viability, T/C [17]: 39.4%
- viability, T/C [18]: 49.5%
- viability, T/C [45]: 43.8%
- viability, T/C [46]: 44.2%
- viability, T/C [47]: 42.6%
- viability, T/C [48]: 5.6%
- viability, T/C [23]: 20.4%
- viability, T/C [24]: 18.4%
- viability, T/C [49]: 19.9%
- viability, T/C [50]: 24.3%
- viability, T/C [51]: 19.9%
- viability, T/C [52]: 2.05%

Structure (SMILES): C#Cc1c(F)ccc2cc(O)cc(-c3ncc4c(N5CC6CCC(C5)N6)nc(OCC56CCCN5CC(F)C6)nc4c3F)c12 (stereo not drawn) + CC(Nc1ccc2c(c1)OCCn1cc(N3C(=O)OCC3C(F)F)nc1-2)C(N)=O
- IC50 (second compound 0.00316 µM): > 10000 nM
- IC50 (second compound 0.01 µM): > 10000 nM
- IC50 (second compound 0.0316 µM): > 10000 nM
- IC50 (second compound 0.1 µM): > 10000 nM
- IC50 (second compound 0.316 µM): > 10000 nM
- IC50 (second compound 1 µM): 1760 nM
- viability, T/C [25]: 99.7%
- viability, T/C [26]: 108%
- viability, T/C [29]: 93.5%
- viability, T/C [30]: 100%
- viability, T/C [31]: 89.6%
- viability, T/C [32]: 62.3%
- viability, T/C [27]: 101%
- viability, T/C [28]: 104%
- viability, T/C [33]: 81%
- viability, T/C [34]: 92.1%
- viability, T/C [35]: 75.3%
- viability, T/C [36]: 71.3%
- viability, T/C [5]: 101%
- viability, T/C [6]: 100%
- viability, T/C [37]: 106%
- viability, T/C [38]: 81.3%
- viability, T/C [39]: 84.3%
- viability, T/C [40]: 55.9%
- viability, T/C [11]: 93.8%
- viability, T/C [12]: 94.2%
- viability, T/C [41]: 76%
- viability, T/C [42]: 75%
- viability, T/C [43]: 68.5%
- viability, T/C [44]: 53.4%
- viability, T/C [17]: 86.6%
- viability, T/C [18]: 86%
- viability, T/C [45]: 68.2%
- viability, T/C [46]: 55.2%
- viability, T/C [47]: 57.1%
- viability, T/C [48]: 50%
- viability, T/C [23]: 78.7%
- viability, T/C [24]: 71.2%
- viability, T/C [49]: 64.6%
- viability, T/C [50]: 53.4%
- viability, T/C [51]: 46.2%
- viability, T/C [52]: 35.1%

— PubChem BioAssay AID1963979 (Molecular Pharmacology Branch, DTP, NCI, 2024)
